# Data published in PubChem BioAssay AID1507 (NMMLSC, 2009).
# Active and inactive are the calls of the source. The rule behind the calls is not given here.
# Tested on: S. aureus strains, alpha hemolysin production inhibition
# Test: inhibition of S. aureus alpha hemolysin production, S. aureus quorum sensing inhibitors, NM300, NM400, MRSA3757 (AID 1507)
# Conditions: for inhibition: stronger effect = higher value
# [1] = hemolysin inhibition, MRSA3757, at 12 µM
# [2] = hemolysin inhibition, strain NM400, at 12 µM
SMILES,inhibition (at 6 µM),"inhibition (hemolysin inhibition, strain NM300, at 6 µM)",inhibition (at 30 µM),"inhibition (hemolysin inhibition, strain NM300, at 30 µM)",outcome (at 12 µM),inhibition [1],inhibition [2]
CCc1oc2ccccc2c1C(=O)c1cc(Br)c(O)c(Br)c1,100%,100%,–,–,–,–,–
Cc1c(Cl)cccc1Nc1ccccc1C(=O)O,–,–,99%,100%,–,–,–
CC1CCCN(C(C(=O)Nc2ccc3c(c2)OCO3)c2ccccc2)C1 (stereo not given),–,–,–,–,inactive; agr3 active,15%,55%
CC1CCCN(C(C(=O)Nc2ccc3c(c2)OCCO3)c2ccccc2)C1 (stereo not given),–,–,–,–,inactive; agr3 active,20%,57%
